Where two headings read alike, the source gives them in different places.
Experiments:
[1] = target: T1, BRM (Homo sapiens, UniProt P51531); test: ATPase catalytic activity of BRM, ADP-Glo in vitro biochemical assay; conditions: for IC50: 30 nM BRM, 400 μM ATP; for Ratio* (BRG1 IC50 (μM) divided by BRM IC50 (μM)): selectivity ratio BRG1 IC50 / BRM IC50
T1 construct: made in house; host or cells: High Five insect cells
Summary of the method: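 Recombinant BRM (30 nM) hydrolysed 400 μM ATP with 20 nM salmon sperm DNA in pH 8 Tris buffer containing 20 mM MgCl2, 50 mM NaCl, 0.1% Tween-20 and 1 mM DTT, 1 h at room temperature. ADP formed was quantified by ADP-Glo luminescence.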

[2] = target: T2, BRG-1 (Homo sapiens, UniProt P51532); test: ATPase catalytic activity of BRG-1, ADP-Glo in vitro biochemical assay; conditions: 30 nM BRG-1, 400 μM ATP, read-out: BRG1 IC50
T2 construct: made in house; host or cells: High Five insect cells
T2 sequence (P51532 whole entry): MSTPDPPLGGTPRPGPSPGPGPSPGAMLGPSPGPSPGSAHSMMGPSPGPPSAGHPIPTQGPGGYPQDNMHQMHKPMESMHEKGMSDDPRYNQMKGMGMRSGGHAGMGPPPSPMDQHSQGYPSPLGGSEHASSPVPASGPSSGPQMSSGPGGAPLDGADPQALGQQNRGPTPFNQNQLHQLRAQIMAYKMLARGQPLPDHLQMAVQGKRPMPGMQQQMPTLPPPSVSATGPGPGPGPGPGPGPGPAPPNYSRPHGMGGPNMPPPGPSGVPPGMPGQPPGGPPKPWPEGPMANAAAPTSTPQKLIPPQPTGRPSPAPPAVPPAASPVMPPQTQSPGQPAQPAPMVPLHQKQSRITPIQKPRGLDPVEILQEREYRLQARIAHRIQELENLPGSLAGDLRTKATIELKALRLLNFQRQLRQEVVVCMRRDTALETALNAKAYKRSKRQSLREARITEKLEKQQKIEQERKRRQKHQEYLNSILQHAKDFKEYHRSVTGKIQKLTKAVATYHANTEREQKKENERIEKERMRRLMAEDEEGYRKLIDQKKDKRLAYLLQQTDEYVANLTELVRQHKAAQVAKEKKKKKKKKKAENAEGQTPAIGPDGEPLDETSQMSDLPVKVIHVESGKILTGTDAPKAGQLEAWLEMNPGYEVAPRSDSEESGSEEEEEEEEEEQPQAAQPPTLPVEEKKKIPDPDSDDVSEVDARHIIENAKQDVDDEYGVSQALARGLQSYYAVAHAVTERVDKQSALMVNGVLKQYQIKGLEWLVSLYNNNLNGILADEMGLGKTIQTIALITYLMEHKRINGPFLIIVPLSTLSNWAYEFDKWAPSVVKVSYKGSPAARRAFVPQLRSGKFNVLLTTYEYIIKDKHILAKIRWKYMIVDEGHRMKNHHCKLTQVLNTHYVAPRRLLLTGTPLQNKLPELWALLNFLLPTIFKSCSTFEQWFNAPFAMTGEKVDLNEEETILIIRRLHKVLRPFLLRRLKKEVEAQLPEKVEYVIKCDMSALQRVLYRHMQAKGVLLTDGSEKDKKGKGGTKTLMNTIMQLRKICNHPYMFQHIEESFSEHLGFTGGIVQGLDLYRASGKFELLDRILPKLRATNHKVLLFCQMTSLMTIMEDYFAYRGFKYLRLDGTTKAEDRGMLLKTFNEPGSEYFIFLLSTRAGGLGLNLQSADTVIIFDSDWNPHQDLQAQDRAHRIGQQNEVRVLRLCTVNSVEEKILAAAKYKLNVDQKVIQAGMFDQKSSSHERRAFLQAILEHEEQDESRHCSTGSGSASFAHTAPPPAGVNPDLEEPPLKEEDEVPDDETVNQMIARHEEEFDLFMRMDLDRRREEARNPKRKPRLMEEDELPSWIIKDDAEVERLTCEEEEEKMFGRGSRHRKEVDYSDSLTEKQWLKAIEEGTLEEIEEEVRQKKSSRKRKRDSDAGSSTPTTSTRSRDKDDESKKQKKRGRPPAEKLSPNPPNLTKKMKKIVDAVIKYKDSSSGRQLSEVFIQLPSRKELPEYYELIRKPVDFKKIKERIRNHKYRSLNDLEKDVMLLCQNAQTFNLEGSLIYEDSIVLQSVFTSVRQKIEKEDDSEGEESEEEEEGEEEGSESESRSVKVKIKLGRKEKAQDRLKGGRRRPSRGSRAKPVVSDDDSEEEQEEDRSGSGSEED
Summary of the method: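 Signal reflects ADP produced by the enzyme, quantified as luminescence after unused ATP is cleared and ADP is reconverted to ATP for the luciferase reaction; both steps run at room temperature, 40 and 60 min respectively.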

[3] = ATPase catalytic activity, ADP-Glo

T1 sequence (P51531 whole entry): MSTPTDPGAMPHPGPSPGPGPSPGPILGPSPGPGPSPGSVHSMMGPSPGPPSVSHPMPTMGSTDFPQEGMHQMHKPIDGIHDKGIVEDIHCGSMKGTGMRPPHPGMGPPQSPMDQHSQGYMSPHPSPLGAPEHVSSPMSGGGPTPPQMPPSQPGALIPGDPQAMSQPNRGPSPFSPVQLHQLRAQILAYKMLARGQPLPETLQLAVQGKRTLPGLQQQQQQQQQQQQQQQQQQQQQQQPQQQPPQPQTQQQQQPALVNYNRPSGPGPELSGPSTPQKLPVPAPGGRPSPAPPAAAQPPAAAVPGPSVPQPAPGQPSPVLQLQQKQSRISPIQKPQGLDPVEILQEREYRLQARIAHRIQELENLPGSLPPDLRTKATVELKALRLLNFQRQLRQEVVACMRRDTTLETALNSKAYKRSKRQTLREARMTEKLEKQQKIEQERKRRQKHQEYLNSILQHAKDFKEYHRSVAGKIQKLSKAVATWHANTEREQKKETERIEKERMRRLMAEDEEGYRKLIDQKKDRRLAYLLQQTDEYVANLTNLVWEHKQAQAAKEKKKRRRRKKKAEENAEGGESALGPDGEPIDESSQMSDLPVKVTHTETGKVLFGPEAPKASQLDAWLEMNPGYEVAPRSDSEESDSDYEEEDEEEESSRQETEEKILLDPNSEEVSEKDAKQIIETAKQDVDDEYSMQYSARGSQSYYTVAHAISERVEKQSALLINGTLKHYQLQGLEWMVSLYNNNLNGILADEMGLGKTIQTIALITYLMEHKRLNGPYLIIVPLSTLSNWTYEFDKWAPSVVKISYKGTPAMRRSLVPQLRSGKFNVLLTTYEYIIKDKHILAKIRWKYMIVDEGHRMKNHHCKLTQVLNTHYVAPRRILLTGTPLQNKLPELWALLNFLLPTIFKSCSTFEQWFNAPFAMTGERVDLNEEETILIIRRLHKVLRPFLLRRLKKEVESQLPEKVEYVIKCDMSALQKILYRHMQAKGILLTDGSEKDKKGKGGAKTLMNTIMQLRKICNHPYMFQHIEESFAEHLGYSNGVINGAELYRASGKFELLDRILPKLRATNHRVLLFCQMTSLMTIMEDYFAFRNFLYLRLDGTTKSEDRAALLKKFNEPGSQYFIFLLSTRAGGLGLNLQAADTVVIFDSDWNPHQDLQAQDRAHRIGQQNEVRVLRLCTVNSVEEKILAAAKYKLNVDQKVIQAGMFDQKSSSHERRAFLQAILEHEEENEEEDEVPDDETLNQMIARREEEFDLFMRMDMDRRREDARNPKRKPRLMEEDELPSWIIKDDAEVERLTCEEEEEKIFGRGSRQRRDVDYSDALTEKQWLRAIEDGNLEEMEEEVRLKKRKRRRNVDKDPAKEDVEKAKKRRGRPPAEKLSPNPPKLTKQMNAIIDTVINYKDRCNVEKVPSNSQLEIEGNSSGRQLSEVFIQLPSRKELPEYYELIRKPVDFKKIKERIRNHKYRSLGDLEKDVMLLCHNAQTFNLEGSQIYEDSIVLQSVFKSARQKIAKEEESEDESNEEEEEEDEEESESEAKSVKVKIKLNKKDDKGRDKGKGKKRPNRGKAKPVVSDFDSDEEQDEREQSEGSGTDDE

Row | SMILES | IC50 ([1]; ADP-Glo ATPase assay) | Ratio* ([1]; ratio BRG1 IC50 / BRM IC50) | IC50 ([2]; ADP-Glo ATPase assay) | Ratio* (BRG1 IC50 (μM) divided by BRM IC50 (μM)) [1] | IC50 [1, 3] | Ratio* ([1]; ratio of BRG1 IC50 to BRM IC50) | IC50 [2, 3]
1 | O=C(NCc1cc2nc(N3CCOc4cc(N5CCC(F)(F)C5)cnc43)ccc2cn1)c1ccc2c(c1)S(=O)(=O)CCOC2 [Compound 758] | 35.6 nM | 14.23 | 507 nM |  |  |  | 
2 | CO[C@@H]1C[C@@H]1N(C)c1cccc(-c2ccc3cnc(CNC(=O)c4ccc5c(c4)S(=O)(=O)[C@@H](C)COC5)cc3n2)n1 [Compound 668] |  |  |  |  | 8.4 nM | 8.70 | 73.4 nM
3 | Cc1ccc2c(n1)N(c1ccc3cnc(CNC(=O)c4ccc5c(c4)S(=O)(=O)CCOC5)cc3c1)CCO2 [Compound 679] |  |  |  |  | 18.9 nM | 22.41 | 423 nM
4 | CC1OCCS(=O)(=O)c2cc(C(=O)NCc3cc4nc(-c5cccc(N6C[C@@H](C)O[C@@H](C)C6)n5)ccc4cn3)ccc21 (some centres unmarked) [Compound 54] | 9.5 nM |  | 44.7 nM | 4.70 |  |  | 
5 | C[C@@H]1CN(c2cccc(-c3ccc4cnc(CNC(=O)c5ccc6c(c5)S(=O)(=O)[C@@H](C)CO6)cc4n3)n2)C[C@H](C)O1 [Compound 687] |  |  |  |  | 19.7 nM | 18.34 | 360 nM
6 | CC(C)S(=O)(=O)c1cccc(C(=O)NCc2cc3nc(-c4cccc(N5C[C@@H](C)O[C@@H](C)C5)n4)ccc3cn2)c1 [Compound 365] |  |  |  |  | 13.1 nM | 24.88 | 325 nM
7 | CCc1cnc2c(c1)OCCN2c1ccc2cnc(CNC(=O)c3ccc4c(c3)S(=O)(=O)CCOC4)cc2n1 [Compound 665] |  |  |  |  | 6.4 nM | 13.54 | 86.8 nM
8 | CN(c1cccc(-c2ccc3cnc(CNC(=O)c4ccc5c(c4)S(=O)(=O)CCOC5)cc3n2)n1)C1CCOCC1 [Compound 174] | 28.8 nM |  | 266 nM | 9.24 |  |  | 
9 | O=C(NCc1cc2nc(-c3cncc(C4CC4)n3)ccc2cn1)c1cc(Cl)c2c(c1)S(=O)(=O)CCOC2 [Compound 187] | 109 nM |  | 2670 nM | 24.40 |  |  | 
10 | COCc1nc2c(cc1Cl)CCCN2c1ccc2cnc(CNC(=O)c3ccc4c(c3)S(=O)(=O)CCOC4)cc2n1 [Compound 599] |  |  |  |  | 58.8 nM | 12.54 | 737 nM
11 | COCc1cc2c(nc1C)N(c1ccc3cnc(CNC(=O)c4ccc5c(c4)S(=O)(=O)CCOC5)cc3n1)CCC2 [Compound 590] |  |  |  |  | 22.4 nM | 7.93 | 177 nM
12 | O=C(NCc1cc2nc(N3CCOc4ccc(C(F)F)nc43)ccc2cn1)c1ccc2c(c1)S(=O)(=O)CCOC2 [Compound 594] |  |  |  |  | 37.2 nM | 31.92 | 1190 nM
13 | O=C(NCc1cc2nc(-c3cccc(N4CCC4)n3)ccc2nn1)c1ccc2c(c1)S(=O)(=O)CCOC2 [Compound 57] | 8 nM |  | 118 nM |  |  |  | 
14 | CS(=O)(=O)c1cc(C(=O)NCc2cc3nc(-c4cccc(N5CC[C@@H]6COC[C@@H]6C5)n4)ccc3cn2)ccc1C(F)F [Compound 96] | 49.7 nM |  | 700 nM | 14.09 |  |  | 
15 | O=C(NCc1cc2nc(N3CCN(C4CC4)c4cc(C5CC5)cnc43)ccc2cn1)c1ccc2c(c1)S(=O)(=O)CCOC2 [Compound 756] | 15.1 nM | 11.62 | 176 nM |  |  |  | 
16 | CC1COCc2ccc(C(=O)NCc3cc4nc(-c5cccc(N6CCC6)n5)ccc4cn3)cc2S1(=O)=O (single isomer, unassigned) [Compound 197] | 19.3 nM |  | 244 nM | 12.64 |  |  | 
17 | O=C(NCc1cc2nc(N3CCOc4cc(C5CC5)cnc43)ccc2cn1)c1ccc2c(c1)S(=O)(=O)CCOC2 [Compound 503] |  |  |  |  | 5.8 nM | 12.62 | 73.7 nM
18 | C[C@@H]1CN(c2cccc(-c3ccc4cnc(CNC(=O)c5ccc6c(c5)S(=O)(=O)[C@@H](C)C6)cc4n3)n2)C[C@H](C)O1 [Compound 500] |  |  |  |  | 208 nM | 16.91 | 3520 nM
19 | C[C@@H]1CN(c2cccc(-c3ccc4cnc(CNC(=O)c5ccc(Cl)c(S(C)(=O)=O)c5)cc4n3)n2)C[C@@H](C)O1 [Compound 177] | 15.8 nM |  | 222 nM | 14.02 |  |  | 
20 | O=C(NCc1cc2nc(N3CCCc4ccc(OCC5CCCO5)cc43)ccc2cn1)c1ccc2c(c1)S(=O)(=O)CCOC2 (centres unmarked) [Compound 747] | 8.8 nM | 13.42 | 118 nM |  |  |  | 
21 | CS(=O)(=O)c1cc(C(=O)NCc2cc3nc(-c4cccc(N5CC[C@@H]6COC[C@@H]6C5)n4)ccc3cn2)ccc1Cl [Compound 77] | 77.5 nM |  | 1070 nM | 13.85 |  |  | 
22 | O=C(NCc1cc2nc(N3CCCc4ccc(OCC5CC5)nc43)ccc2cn1)c1ccc2c(c1)S(=O)(=O)CCOC2 [Compound 589] |  |  |  |  | 77.7 nM | 13.88 | 1080 nM
23 | COCc1cnc2c(c1)CCCN2c1ccc2cnc(CNC(=O)c3ccc4c(c3)S(=O)(=O)CCOC4)cc2n1 [Compound 447] |  |  |  |  | 22.1 nM | 10.05 | 222 nM
24 | COCc1ccc2c(n1)N(c1ccc3cnc(CNC(=O)c4ccc5c(c4)S(=O)(=O)CCOC5)cc3n1)CCC2 [Compound 445] |  |  |  |  | 20.4 nM | 32.29 | 658 nM

Continued, values first:

Row | IC50 ([1]; ADP-Glo ATPase assay) | Ratio* ([1]; ratio BRG1 IC50 / BRM IC50) | IC50 ([2]; ADP-Glo ATPase assay) | Ratio* (BRG1 IC50 (μM) divided by BRM IC50 (μM)) [1] | IC50 [1, 3] | Ratio* ([1]; ratio of BRG1 IC50 to BRM IC50) | IC50 [2, 3] | SMILES
25 | 32 nM |  | 288 nM | 9.02 |  |  |  | CN(c1cccc(-c2ccc3cnc(CNC(=O)c4ccc5c(c4)S(=O)(=O)CCOC5)cc3n2)n1)C1CC1 [Compound 94]
26 |  |  |  |  | 66.4 nM | 8.06 | 535 nM | O=C(NCc1cc2nc(-c3cccc(C4CCOC4)n3)ccc2cn1)c1ccc2c(c1)S(=O)(=O)CCOC2 (centres unmarked) [Compound 376]
27 | 19.3 nM |  | 497 nM | 25.69 |  |  |  | O=C(NCc1cc2nc(-c3cccc(OC(F)F)n3)ccc2cn1)c1ccc2c(c1)S(=O)(=O)CCOC2 [Compound 285]
28 |  |  |  |  | 9.6 nM | 8.89 | 85.8 nM | CO[C@H]1CN(c2cccc(-c3ccc4cnc(CNC(=O)c5ccc6c(c5)S(=O)(=O)CCOC6)cc4n3)n2)C[C@@H]1F [Compound 339]
29 |  |  |  |  | 28.7 nM | 15.87 | 456 nM | O=C(NCc1cc2nc(-c3cccc(OCC4CC4(F)F)n3)ccc2cn1)c1ccc2c(c1)S(=O)(=O)CCOC2 (centres unmarked) [Compound 391]
30 | 18.7 nM |  | 143 nM | 7.68 |  |  |  | COc1cc(Cl)ccc1-c1ccc2cnc(CNC(=O)c3ccc4c(c3)S(=O)(=O)CCOC4)cc2n1 [Compound 102]
31 |  |  |  |  | 6.8 nM | 18.76 | 128 nM | COC[C@@H](C)Oc1ccc2c(c1)N(c1ccc3cnc(CNC(=O)c4ccc5c(c4)S(=O)(=O)CCOC5)cc3n1)CCC2 [Compound 696]
32 |  |  |  |  | 165 nM | 6.68 | 1100 nM | O=C(NCc1cc2nc(-c3cccc4c3OCC[C@@H]4OC3COC3)ccc2cn1)c1ccc2c(c1)S(=O)(=O)CCOC2 [Compound 410]
33 |  |  |  |  | 54.5 nM | 10.07 | 549 nM | O=C(NCc1cc2nc(-c3ccc4c(n3)C(F)(F)CC4)ccc2cn1)c1ccc2c(c1)S(=O)(=O)CCOC2 [Compound 678]
34 |  |  |  |  | 24.3 nM | 11.87 | 288 nM | COc1cc(C(F)(F)F)ccc1-c1ccc2cnc(CNC(=O)c3ccc4c(c3)S(=O)(=O)CCOC4)cc2n1 [Compound 335]
35 | 15.3 nM |  | 197 nM | 12.92 |  |  |  | Cc1cc2c(-c3ccc4cnc(CNC(=O)c5ccc6c(c5)S(=O)(=O)CCOC6)cc4n3)ccnc2n1C [Compound 146]
36 |  |  |  |  | 42.7 nM | 14.74 | 630 nM | O=C(NCc1cc2nc(-c3cccc(OCC4CCC4)n3)ccc2cn1)c1ccc2c(c1)S(=O)(=O)CCOC2 [Compound 375]
37 | 45.9 nM |  | 394 nM | 8.57 |  |  |  | CN1CCc2ccc(-c3ccc4cnc(CNC(=O)c5ccc6c(c5)S(=O)(=O)CCOC6)cc4n3)nc21 [Compound 190]
38 |  |  |  |  | 12.2 nM | 12.53 | 153 nM | COc1ccc2c(c1)N(c1ccc3cnc(CNC(=O)c4ccc5c(c4)S(=O)(=O)CCOC5)cc3n1)CCC2 [Compound 539]
39 |  |  |  |  | 4.6 nM | 7.69 | 35.4 nM | COCCN(CC(F)F)c1cccc(-c2ccc3cnc(CNC(=O)c4ccc5c(c4)S(=O)(=O)CCOC5)cc3n2)n1 [Compound 358]
40 |  |  |  |  | 24.2 nM | 9.71 | 235 nM | CN(CCC(F)F)c1cccc(-c2ccc3cnc(CNC(=O)c4ccc5c(c4)S(=O)(=O)CCOC5)cc3n2)n1 [Compound 460]
41 |  |  |  |  | 12.2 nM | 10.50 | 128 nM | Cc1cnc2c(c1)CCN2c1ccc2cnc(CNC(=O)c3ccc4c(c3)S(=O)(=O)CCOC4)cc2n1 [Compound 656]
42 | 103 nM | 11.84 | 1220 nM |  |  |  |  | O=C(NCc1cc2nc(N3CCc4cc(F)cnc43)ccc2cn1)c1ccc2c(c1)S(=O)(=O)CCOC2 [Compound 727]
43 | 23.9 nM |  | 285 nM | 11.93 |  |  |  | CN(CC1COC1)c1cccc(-c2ccc3cnc(CNC(=O)c4ccc5c(c4)S(=O)(=O)CCOC5)cc3n2)n1 [Compound 71]

From patent US20230416248A1, “COMPOUNDS AND USES THEREOF” (Foghorn Therapeutics Inc., priority 2020, published 2023)
